Measured values from patent US4362746A (priority 1981, dated 1982).
Structures can show the parent of a compound that is named as a salt. Where two headings read alike, the source gives them in different places.

Legend:
[1] = tested on: G-2 cells; conditions: maximal non-toxic concentration; G-2 cells; hydrochloride
[2] = tested on: Influenza A/Swine/1976/31; assay: microbe, parasite or virus in culture; type: cell-based; conditions: in Sus scrofa
[3] = in vitro; conditions: human, g-2 cells; for MNTC: Cytotoxicity CTD0, maximal non-toxic concentration; for CC50: Cytotoxicity CTD50
[4] = tested on: influenza virus A2 /Aichi/2/68; type: in vivo, mice (Charles River, random bred white, female); conditions: for Mean Survival Time / Survival % / Survival N (surviving animals / total infected) / Mean Survival Time Increase: 16 days; for Mean Survival Time Increase: vs virus only; for antiviral effect against influenza virus infection: administered intraperitoneally
[5] = tested on: Influenza A2 /MTL/68; assay: In vitro anti-myxovirus assay, inhibition of hemadsorption, Influenza A2/MTL/68 in G-2 cells; type: cell-based, Influenza A2 /Montreal/68; conditions: for inhibition at 5 µg/mL: 5 ug/ml; for inhibition at 10 µg/mL: 10 ug/ml; for inhibition at 25 µg/mL: 25 ug/ml; for inhibition at 33 µg/mL: 33 ug/ml; for inhibition at 50 µg/mL: 50 ug/ml
[6] = tested on: mice; assay: Subacute toxicity in mice; conditions: once a day, seventeenth day of treatment
[7] = Subacute toxicity in mice; conditions: mouse, in vivo
[8] = tested on: mice; assay: Acute toxicity in mice; conditions: after 24 hours
[9] = Acute toxicity in mice; conditions: mouse, in vivo
[10] = tested on: Influenza A2 /Aichi/2/68; assay: In vitro anti-myxovirus assay, inhibition of hemadsorption, Influenza A2/Aichi/2/68 in G-2 cells; type: cell-based; conditions: for inhibition at 50 µg/mL: 50 ug/ml; for inhibition at 60 µg/mL: 60 ug/ml; for inhibition at 70 µg/mL: 70 ug/ml; for inhibition at 80 µg/mL: 80 ug/ml; for inhibition at 90 µg/mL: 90 ug/ml; for inhibition at 100 µg/mL: 100 ug/ml
[11] = Exp. 1, virus dose 4.1 LD50, 25 mg/kg/day IP
[12] = Exp. 1, virus dose 4.1 LD50, 75 mg/kg/day IP
[13] = Exp. 2, virus dose 2.0 LD50, 75 mg/kg/day IP
[14] = Exp. 3, virus dose 2.6 LD50, 75 mg/kg/day IP
[15] = Exp. 4, virus dose 3.0 LD50, 75 mg/kg/day IP

CN(C)C[C@@H]1C[C@H]2C[C@@H]1c1ccccc12 (relative stereo) [Compound A, endo-2-dimethylaminomethyl-1,2,3,4-tetrahydro-1,4-methanonaphthalene hydrochloride]
Cytotoxicity CTD0 [1]: 50 µg/mL
inhibition at 5 µg/mL ([2]; 56 TCID50, 5 ug/ml): 0%
inhibition at 10 µg/mL ([2]; 56 TCID50, 10 ug/ml): 37%
inhibition at 25 µg/mL ([2]; 56 TCID50, 25 ug/ml): 85%
inhibition at 33 µg/mL ([2]; 56 TCID50, 33 ug/ml): 82%
inhibition at 50 µg/mL ([2]; 56 TCID50, 50 ug/ml): 97%
inhibition at 75 µg/mL ([2]; 56 TCID50, 75 ug/ml): 100%
inhibition at 5 µg/mL ([2]; 562 TCID50, 5 ug/ml): 0%
inhibition at 10 µg/mL ([2]; 562 TCID50, 10 ug/ml): 0%
inhibition at 25 µg/mL ([2]; 562 TCID50, 25 ug/ml): 0%
inhibition at 33 µg/mL ([2]; 562 TCID50, 33 ug/ml): 37%
inhibition at 50 µg/mL ([2]; 562 TCID50, 50 ug/ml): 72%
inhibition at 75 µg/mL ([2]; 562 TCID50, 75 ug/ml): 73%
MNTC [3]: 75 µg/mL
CC50 [3]: 100 µg/mL
Mean Survival Time [4, 11]: 12.7 days
Survival % [4, 11]: 30%
Survival N (surviving animals / total infected) [4, 11]: 6/20
Mean Survival Time Increase [4, 11]: +0.5 Days
antiviral effect against influenza virus infection [4]: significant antiviral effect
inhibition at 5 µg/mL ([5]; 32 TCID50): 0%
inhibition at 10 µg/mL ([5]; 32 TCID50): 23%
inhibition at 25 µg/mL ([5]; 32 TCID50): 76%
inhibition at 33 µg/mL ([5]; 32 TCID50): 78%
inhibition at 50 µg/mL ([5]; 32 TCID50): 97%
inhibition at 5 µg/mL ([5]; 316 TCID50): 0%
inhibition at 10 µg/mL ([5]; 316 TCID50): 0%
inhibition at 25 µg/mL ([5]; 316 TCID50): 27%
inhibition at 33 µg/mL ([5]; 316 TCID50): 52%
inhibition at 50 µg/mL ([5]; 316 TCID50): 53%
Subacute LD0 (non-lethal dose) ([6]; IP): 75 mg/kg/day
Subacute LD0 (non-lethal dose) ([6]; PO): > 750 mg/kg/day
LD50 at 408 h ([7]; ip): 125 mg/kg
NOAEL at 408 h ([7]; ip): 25 mg/kg/day
LD50 at 408 h ([7]; po): > 750 mg/kg
NOAEL at 408 h ([7]; po): 300 mg/kg/day
Acute LD0 (non-lethal dose) ([8]; IP): 75 mg/kg/day
Acute LD0 (non-lethal dose) ([8]; PO): > 750 mg/kg/day
LD50 at 24 h ([9]; ip): 160 mg/kg
NOAEL at 24 h ([9]; ip): 25 mg/kg/day
LD50 at 24 h ([9]; po): > 750 mg/kg
NOAEL at 24 h ([9]; po): 200 mg/kg/day

NC12CC3CC(CC(C3)C1)C2 [AMANTADINE HYDROCHLORIDE, reference compound]
inhibition at 50 µg/mL ([10]; 52 TCID50): 0%
inhibition at 60 µg/mL ([10]; 52 TCID50): 53%
inhibition at 70 µg/mL ([10]; 52 TCID50): 83%
inhibition at 80 µg/mL ([10]; 52 TCID50): 70%
inhibition at 90 µg/mL ([10]; 52 TCID50): 97%
inhibition at 100 µg/mL ([10]; 52 TCID50): 87%
inhibition at 50 µg/mL ([10]; 100 TCID50): 0%
inhibition at 60 µg/mL ([10]; 100 TCID50): 0%
inhibition at 70 µg/mL ([10]; 100 TCID50): 33%
inhibition at 80 µg/mL ([10]; 100 TCID50): 27%
inhibition at 90 µg/mL ([10]; 100 TCID50): 67%
inhibition at 100 µg/mL ([10]; 100 TCID50): 43%
inhibition at 30 µg/mL ([2]; 178 TCID50, 30 ug/ml): 0%
inhibition at 40 µg/mL ([2]; 178 TCID50, 40 ug/ml): 17%
inhibition at 50 µg/mL ([2]; 178 TCID50, 50 ug/ml): 80%
inhibition at 60 µg/mL ([2]; 178 TCID50, 60 ug/ml): 90%
inhibition at 70 µg/mL ([2]; 178 TCID50, 70 ug/ml): 93%
inhibition at 80 µg/mL ([2]; 178 TCID50, 80 ug/ml): 100%
inhibition at 90 µg/mL ([2]; 178 TCID50, 90 ug/ml): 100%
inhibition at 100 µg/mL ([2]; 178 TCID50, 100 ug/ml): 100%
inhibition at 30 µg/mL ([2]; 316 TCID50, 30 ug/ml): 0%
inhibition at 40 µg/mL ([2]; 316 TCID50, 40 ug/ml): 10%
inhibition at 50 µg/mL ([2]; 316 TCID50, 50 ug/ml): 67%
inhibition at 70 µg/mL ([2]; 316 TCID50, 70 ug/ml): 97%
inhibition at 80 µg/mL ([2]; 316 TCID50, 80 ug/ml): 100%
inhibition at 90 µg/mL ([2]; 316 TCID50, 90 ug/ml): 100%
inhibition at 100 µg/mL ([2]; 316 TCID50, 100 ug/ml): 100%
MNTC [3]: 100 µg/mL
CC50 [3]: > 100 µg/mL
Mean Survival Time [4, 12]: 14.1 days
Survival % [4, 12]: 55%
Survival N (surviving animals / total infected) [4, 12]: 11/20
Mean Survival Time Increase [4, 12]: +1.9 Days
Mean Survival Time [4, 13]: 15.3 days
Survival % [4, 13]: 80%
Survival N (surviving animals / total infected) [4, 13]: 16/20
Mean Survival Time Increase [4, 13]: +2.9 Days
Mean Survival Time [4, 14]: 15.1 days
Survival % [4, 14]: 80%
Survival N (surviving animals / total infected) [4, 14]: 16/20
Mean Survival Time Increase [4, 14]: +4.0 Days
Mean Survival Time [4, 15]: 15.0 days
Survival % [4, 15]: 79%
Survival N (surviving animals / total infected) [4, 15]: 15/19
Mean Survival Time Increase [4, 15]: +3.7 Days
antiviral effect against influenza virus infection [4]: significant antiviral effect
inhibition at 50 µg/mL ([5]; 316 TCID50): 0%
inhibition at 60 µg/mL ([5]; 316 TCID50, 60 ug/ml): 0%
inhibition at 70 µg/mL ([5]; 316 TCID50, 70 ug/ml): 16%
inhibition at 80 µg/mL ([5]; 316 TCID50, 80 ug/ml): 42%
inhibition at 90 µg/mL ([5]; 316 TCID50, 90 ug/ml): 46%
inhibition at 100 µg/mL ([5]; 316 TCID50, 100 ug/ml): 54%
